According to patent US20250326749A1, “COMPOUNDS, COMPOSITIONS, AND METHODS OF USING THEREOF” (Sionna Therapeutics Inc., priority 2022, published 2025):

Target: T1, ΔF508-CFTR (Homo sapiens, UniProt P13569, DEL508-508)
T1 construct: expressed in transfected cells; host or cells: CFSMEo- (human CF submucosal gland epithelial cells, ΔF508/Q2X), transiently transfected by nucleofection
Test: ΔF508-CFTR-HRP trafficking assay (cell surface expression of ΔF508-CFTR)
Type: cell-based
Settings: CFSMEo- cells transiently transfected with ΔF508-CFTR-HRP; test agent 3 μM, 48 h; HRP chemiluminescence
From the text: Test agents were screened for their effect on cell surface expression of ΔF508-CFTR using the ΔF508-CFTR-HRP trafficking assay. For this assay, a ΔF508-CFTR expression construct was designed with an in-frame insertion of a horseradish peroxidase (HRP) tag into the 4th extracellular loop of CFTR. The HRP tag would be presented extracellularly, in cells transiently transfected with the ΔF508-CFTR-HRP construct, following correction of the ΔF508-CFTR trafficking defect. The quantity of ΔF508-CFTR-HRP expressed on the plasma membrane could therefore be determined by measuring an HRP-dependent signal after the application of a cell-impermeable HRP substrate.
In brief, CF submucosal gland epithelial cells (CFSMEo-), derived from the airways of a CF patient (ΔF508/Q2X) and provided by Dr. Dieter Gruenert, University of California-San Francisco, were cultured at 37° C. with 5% CO2 in minimum essential medium (MEM) with Earle's salt and nonessential amino acids, supplemented with 10% (volume per volume [v/v]) fetal bovine serum, 2 mM L-glutamine and 1× (v/v) penicillin/streptomycin and grown in tissue culture-treated flasks coated with an extracellular matrix (ECM) cocktail consisting of 10 μg/mL human fibronectin, 30 μg/mL bovine collagen type I, and 100 μg/mL bovine serum albumin in LHC basal medium. These CFSMEo^− cells were transiently transfected with 4 μg of the ΔF508-CFTR-HRP expression construct using the Lonza 4D-Nucleofector Core unit (Lonza, Catalogue No. AAF-1002B) with the X unit (Lonza, Catalogue No. AAF-1002X) and SF Cell Line 4D-Nucleofector X Kit L (Lonza, Catalogue No. V4XC-2024) according to the manufacturer's instructions and plated at 1.2×10^4 cells/well onto collagen-coated, 96-well plates (Corning Inc.). Twenty-four h post-transfection, cells were treated with test agents, solubilized in DMSO at a concentration of 3 μM in replicates of 3, and allowed to incubate for 48 h. To detect HRP expression, cell culture media was removed, cells were washed with PBS and 100 μL of Luminata Forte HRP chemiluminescent substrate (EMD Millipore, Burlington, MA) was added to each well. Following a 5-minute incubation, chemiluminescence was measured in relative luminescent units (RLUs) using an EnVision plate reader (Perkin Elmer, Waltham, MA).
The ΔF508-CFTR-HRP trafficking data was normalized to the vehicle treated control (0.3% DMSO), followed by calculation of the mean, standard deviation, and standard error. If the test agent increased cell surface expression of ΔF508-CFTR-HRP relative to the vehicle-treated control, then that test agent was considered a ΔF508-CFTR corrector. Based on the description above, the biological activity of the examples in this disclosure is collected in Table 2.

T1 sequence (P13569 with tags, fused parts or gaps DEL508-508): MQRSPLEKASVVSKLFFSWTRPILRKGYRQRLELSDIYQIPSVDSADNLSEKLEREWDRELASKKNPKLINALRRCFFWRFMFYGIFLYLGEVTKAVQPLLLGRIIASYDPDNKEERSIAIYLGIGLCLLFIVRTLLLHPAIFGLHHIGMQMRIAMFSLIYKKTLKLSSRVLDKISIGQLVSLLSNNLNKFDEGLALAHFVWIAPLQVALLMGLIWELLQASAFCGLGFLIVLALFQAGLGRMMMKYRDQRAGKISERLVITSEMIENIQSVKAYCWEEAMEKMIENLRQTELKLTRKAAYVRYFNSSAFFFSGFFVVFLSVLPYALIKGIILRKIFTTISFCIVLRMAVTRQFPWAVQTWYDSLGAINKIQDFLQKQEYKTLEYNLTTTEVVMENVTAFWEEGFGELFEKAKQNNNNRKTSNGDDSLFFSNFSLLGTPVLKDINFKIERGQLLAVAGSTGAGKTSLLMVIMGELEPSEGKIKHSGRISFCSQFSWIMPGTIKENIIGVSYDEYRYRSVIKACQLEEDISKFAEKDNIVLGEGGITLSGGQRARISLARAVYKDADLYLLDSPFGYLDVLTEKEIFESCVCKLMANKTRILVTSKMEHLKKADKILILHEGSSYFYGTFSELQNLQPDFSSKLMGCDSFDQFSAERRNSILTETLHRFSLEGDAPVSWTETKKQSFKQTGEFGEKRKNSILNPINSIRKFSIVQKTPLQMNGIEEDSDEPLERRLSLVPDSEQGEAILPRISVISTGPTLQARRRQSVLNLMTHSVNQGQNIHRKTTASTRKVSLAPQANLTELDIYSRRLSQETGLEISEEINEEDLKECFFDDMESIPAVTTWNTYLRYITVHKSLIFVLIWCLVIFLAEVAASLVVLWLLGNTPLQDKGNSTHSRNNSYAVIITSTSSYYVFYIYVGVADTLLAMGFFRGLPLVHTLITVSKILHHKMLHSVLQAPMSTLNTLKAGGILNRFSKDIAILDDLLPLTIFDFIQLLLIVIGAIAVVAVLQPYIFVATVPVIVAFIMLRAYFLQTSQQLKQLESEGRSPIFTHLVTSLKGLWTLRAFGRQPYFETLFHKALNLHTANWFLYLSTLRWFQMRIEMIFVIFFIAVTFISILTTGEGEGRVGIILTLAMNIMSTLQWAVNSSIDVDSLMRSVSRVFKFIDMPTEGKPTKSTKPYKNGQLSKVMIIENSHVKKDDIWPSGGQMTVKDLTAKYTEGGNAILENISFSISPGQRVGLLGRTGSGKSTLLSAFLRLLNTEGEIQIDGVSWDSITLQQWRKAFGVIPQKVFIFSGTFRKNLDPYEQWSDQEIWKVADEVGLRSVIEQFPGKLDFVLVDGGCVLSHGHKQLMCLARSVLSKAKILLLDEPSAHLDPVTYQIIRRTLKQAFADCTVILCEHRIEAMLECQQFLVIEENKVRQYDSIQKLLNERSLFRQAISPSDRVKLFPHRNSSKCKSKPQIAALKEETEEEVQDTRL

Structure (SMILES) | RLUs: ΔF508-CFTR-HRP trafficking data normalized to the vehicle treated control (0.3% DMSO)
C[C@H](Oc1cc(-n2nc(C(F)(F)F)c3c2[C@@H](OC24CC(C(=O)O)(C2)C4)CCC3)ccc1F)c1ccc2c(c1)OC(F)(F)O2 (single isomer, unassigned) [76 (P1)] | C (RLU 0.0 μM-3.5 μM)
C[C@H](Oc1cc(-n2nc(C(F)(F)F)c3c2[C@H](OC24CC(C(=O)O)(C2)C4)CCC3)ccc1F)c1ccc2c(c1)OC(F)(F)O2 (single isomer, unassigned) [76 (P2)] | C (RLU 0.0 μM-3.5 μM)
C[C@H](Oc1cc(-n2nc(C(F)(F)F)c3c2[C@@H](OC24CC(CC(=O)O)(C2)C4)CCC3)ccc1F)c1ccc2c(c1)OC(F)(F)O2 (single isomer, unassigned) [78 (P1)] | C (RLU 0.0 μM-3.5 μM)
C[C@H](Oc1cc(-n2nc(C(F)(F)F)c3c2[C@H](OC24CC(CC(=O)O)(C2)C4)CCC3)ccc1F)c1ccc2c(c1)OC(F)(F)O2 (single isomer, unassigned) [78 (P2)] | C (RLU 0.0 μM-3.5 μM)
C[C@H](Oc1cc(-n2nc(C(F)(F)F)c3c2[C@H](OC24CCC(C(=O)O)(CC2)CC4)CCC3)cc(F)n1)c1ccc2c(c1)OC(F)(F)O2 (single isomer, unassigned) [81 (P1)] | A (RLU 5.0 μM-10 μM)
C[C@H](Oc1cc(-n2nc(C(F)(F)F)c3c2[C@@H](OC24CCC(C(=O)O)(CC2)CC4)CCC3)cc(F)n1)c1ccc2c(c1)OC(F)(F)O2 (single isomer, unassigned) [81 (P2)] | C (RLU 0.0 μM-3.5 μM)
C[C@H](Oc1cc(-n2nc(C(F)(F)F)c3c2[C@@H](OC24CC(c5nc(=O)o[nH]5)(C2)C4)CCC3)ccc1F)c1ccc2c(c1)OC(F)(F)O2 (single isomer, unassigned) [85 (P1)] | C (RLU 0.0 μM-3.5 μM)
C[C@H](Oc1cc(-n2nc(C(F)(F)F)c3c2[C@H](OC24CC(c5nc(=O)o[nH]5)(C2)C4)CCC3)ccc1F)c1ccc2c(c1)OC(F)(F)O2 (single isomer, unassigned) [85 (P2)] | B (RLU 3.5 μM-5.0 μM)
C[C@H](Oc1cc(-n2nc(C(F)(F)F)c3c2[C@@H](OC24CC(c5nc(=O)o[nH]5)(C2)C4)CCC3)ccc1F)c1cc2c(cc1F)OC(F)(F)O2 (single isomer, unassigned) [86 (P1)] | C (RLU 0.0 μM-3.5 μM)
C[C@H](Nc1cc(-n2nc(C(F)(F)F)c3c2[C@@H](NC24CC(C(=O)O)(C2)C4)CCC3)ccc1F)c1ccc2c(c1)OC(F)(F)O2 (single isomer, unassigned) [94 (P1)] | C (RLU 0.0 μM-3.5 μM)
C[C@H](Nc1cc(-n2nc(C(F)(F)F)c3c2[C@H](NC24CC(C(=O)O)(C2)C4)CCC3)ccc1F)c1ccc2c(c1)OC(F)(F)O2 (single isomer, unassigned) [94 (P2)] | C (RLU 0.0 μM-3.5 μM)
C[C@H](Nc1cc(-n2nc(C(F)(F)F)c3c2[C@H](OC24CC(C(=O)O)(C2)C4)CCC3)ccc1F)c1ccc2c(c1)OC(F)(F)O2 (single isomer, unassigned) [95 (P2)] | C (RLU 0.0 μM-3.5 μM)
C[C@H](Nc1cc(-n2nc(C(F)(F)F)c3c2[C@@H](OC24CC(C(=O)O)(C2)C4)CCC3)ccc1F)c1cc2c(cc1F)OC(F)(F)O2 (single isomer, unassigned) [96 (P1)] | B (RLU 3.5 μM-5.0 μM)

Second part, the molecule after the results:

RLUs: ΔF508-CFTR-HRP trafficking data normalized to the vehicle treated control (0.3% DMSO) | Structure (SMILES)
A (RLU 5.0 μM-10 μM) | C[C@H](Oc1cccc(-n2nc(C(F)(F)F)c3c2C(O[C@H]2CC[C@H](C(=O)O)CC2)CCC3)c1)c1ccc2c(c1)OC(F)(F)O2 (relative stereo) [Example 37]
A (RLU 5.0 μM-10 μM) | C[C@H](Oc1cncc(-n2nc(C(F)(F)F)c3c2[C@@H](OC24CC(C(=O)O)(C2)C4)CCC3)c1)c1cc2c(cc1F)OC(F)(F)O2 (single isomer, unassigned) [74 (P1)]
A (RLU 5.0 μM-10 μM) | C[C@H](Oc1cncc(-n2nc(C(F)(F)F)c3c2[C@H](OC24CC(C(=O)O)(C2)C4)CCC3)c1)c1cc2c(cc1F)OC(F)(F)O2 (single isomer, unassigned) [74 (P2)]
C (RLU 0.0 μM-3.5 μM) | C[C@H](Oc1cc(-n2nc(C(F)(F)F)c3c2[C@@H](OC24CC(C(=O)O)(C2)C4)CCC3)cnc1F)c1cc2c(cc1F)OC(F)(F)O2 (single isomer, unassigned) [75 (P1)]
C (RLU 0.0 μM-3.5 μM) | C[C@H](Oc1cc(-n2nc(C(F)(F)F)c3c2[C@H](OC24CC(C(=O)O)(C2)C4)CCC3)cnc1F)c1cc2c(cc1F)OC(F)(F)O2 (single isomer, unassigned) [75 (P2)]
B (RLU 3.5 μM-5.0 μM) | C[C@H](Oc1cccc(-n2nc(C(F)(F)F)c3c2[C@@H](OC24CC(C(=O)O)(C2)C4)CCC3)n1)c1ccc2c(c1)OC(F)(F)O2 (single isomer, unassigned) [77 (P1)]
B (RLU 3.5 μM-5.0 μM) | C[C@H](Oc1cccc(-n2nc(C(F)(F)F)c3c2[C@H](OC24CC(C(=O)O)(C2)C4)CCC3)n1)c1ccc2c(c1)OC(F)(F)O2 (single isomer, unassigned) [77 (P2)]
B (RLU 3.5 μM-5.0 μM) | C[C@H](Oc1cc(-n2nc(C(F)(F)F)c3c2[C@@H](O[C@H]2CC[C@H](C(=O)O)CC2)CCC3)cnc1F)c1ccc2c(c1)OC(F)(F)O2 (single isomer, unassigned) [79 (P1)]
A (RLU 5.0 μM-10 μM) | C[C@H](Oc1cc(-n2nc(C(F)(F)F)c3c2[C@@H](O[C@H]2CC[C@H](C(=O)O)CC2)CCC3)cc(F)n1)c1ccc2c(c1)OC(F)(F)O2 (single isomer, unassigned) [80 (P1)]
B (RLU 3.5 μM-5.0 μM) | C[C@H](Oc1cc(-n2nc(C(F)(F)F)c3c2[C@@H](OC[C@H]2CC[C@H](C(=O)O)CC2)CCC3)cnc1F)c1ccc2c(c1)OC(F)(F)O2 (single isomer, unassigned) [82 (P1)]
A (RLU 5.0 μM-10 μM) | C[C@H](Oc1cc(-n2nc(C(F)(F)F)c3c2[C@H](OC[C@H]2CC[C@H](C(=O)O)CC2)CCC3)cnc1F)c1ccc2c(c1)OC(F)(F)O2 (single isomer, unassigned) [82 (P2)]
B (RLU 3.5 μM-5.0 μM) | C[C@H](Oc1cccc(-n2nc(C(F)(F)F)c3c2[C@@H](O[C@H]2C[C@H](C(=O)O)C2)CCC3)n1)c1cc2c(cc1F)OC(F)(F)O2 (single isomer, unassigned) [83 (P1)]
C (RLU 0.0 μM-3.5 μM) | C[C@H](Oc1cccc(-n2nc(C(F)(F)F)c3c2[C@H](O[C@H]2C[C@H](C(=O)O)C2)CCC3)n1)c1cc2c(cc1F)OC(F)(F)O2 (single isomer, unassigned) [83 (P2)]
B (RLU 3.5 μM-5.0 μM) | C[C@H](Oc1nc(-n2nc(C(F)(F)F)c3c2[C@@H](O[C@H]2C[C@H](C(=O)O)C2)CCC3)ccc1F)c1cc2c(cc1F)OC(F)(F)O2 (single isomer, unassigned) [84 (P1)]
C (RLU 0.0 μM-3.5 μM) | C[C@H](Oc1nc(-n2nc(C(F)(F)F)c3c2[C@H](O[C@H]2C[C@H](C(=O)O)C2)CCC3)ccc1F)c1cc2c(cc1F)OC(F)(F)O2 (single isomer, unassigned) [84 (P2)]
C (RLU 0.0 μM-3.5 μM) | C[C@H](Oc1cc(-n2nc(C(F)(F)F)c3c2[C@H](OC24CC(c5nc(=O)o[nH]5)(C2)C4)CCC3)ccc1F)c1cc2c(cc1F)OC(F)(F)O2 (single isomer, unassigned) [86 (P2)]
